# Laboratory results from ChEMBL document CHEMBL3621173, “Evaluation of functional groups as acetyl-lysine mimetics for BET bromodomain inhibition” (Medchemcomm, 2014).
# Active and inactive are the calls of the source. No cut-off for these calls is given here.
# System: not listed separately
# Assay: Degradation half-life in rat liver microsomes
# Type: ADME
# Conditions: not given
row,half-life,Structure (SMILES)
1,2 min,Cc1ccc(-c2c(C)noc2C)cc1S(=O)(=O)NC1CCCC1
2,207 min,COc1cc2c(cc1-c1c(C)noc1C)ncc1[nH]c(=O)n([C@H](C)c3ccccn3)c12
3,107 min,Cc1ccc(-n2c(C)nnc2C)cc1S(=O)(=O)NC1CCCC1

# Biological target: T1, Bromodomain-containing protein 3 (Homo sapiens, UniProt Q15059)
# Assay: Inhibition of BRD3 (D1) (unknown origin) incubated for 30 mins using histone H4 peptide (1-21) K5/8/12/16Ac-biotin by alpha screen assay
# Conditions: not given
# Target sequence in this assay (Q15059 whole entry): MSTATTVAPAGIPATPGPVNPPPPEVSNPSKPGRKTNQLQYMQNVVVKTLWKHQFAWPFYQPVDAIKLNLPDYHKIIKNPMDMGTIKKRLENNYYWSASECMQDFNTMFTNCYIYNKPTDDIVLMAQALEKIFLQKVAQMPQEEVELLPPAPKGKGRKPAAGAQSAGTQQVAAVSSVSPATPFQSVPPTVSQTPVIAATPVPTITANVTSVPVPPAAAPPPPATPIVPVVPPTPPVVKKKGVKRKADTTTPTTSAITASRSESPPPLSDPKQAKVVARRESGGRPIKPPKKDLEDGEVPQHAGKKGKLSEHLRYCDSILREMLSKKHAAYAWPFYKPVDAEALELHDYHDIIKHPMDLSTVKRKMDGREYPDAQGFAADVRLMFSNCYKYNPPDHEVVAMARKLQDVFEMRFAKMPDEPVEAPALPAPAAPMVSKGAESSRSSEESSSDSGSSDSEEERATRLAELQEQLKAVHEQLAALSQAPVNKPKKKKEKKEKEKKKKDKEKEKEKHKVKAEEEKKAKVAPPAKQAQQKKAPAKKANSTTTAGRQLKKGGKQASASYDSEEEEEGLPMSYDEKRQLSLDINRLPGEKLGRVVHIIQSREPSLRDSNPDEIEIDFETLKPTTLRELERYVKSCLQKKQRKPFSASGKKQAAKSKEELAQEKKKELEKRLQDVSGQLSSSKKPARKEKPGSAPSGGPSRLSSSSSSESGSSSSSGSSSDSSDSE
row,IC50,Structure (SMILES)
1,≥ 10000 nM,Cc1ccc(-n2cnnc2C)cc1S(=O)(=O)NC1CCCC1
2,10000 nM,COc1ccc(-c2cnn(C)n2)cc1S(=O)(=O)NC1CCCC1
3,1710 nM,COc1ccc(-c2ccnn2C)cc1S(=O)(=O)NC1CCCC1
4,1320 nM,COc1ccc(-c2c(C)n[nH]c2C)cc1S(=O)(=O)NC1CCCC1
5,≥ 10000 nM,Cc1ccc(-n2c(C)nnc2C)cc1S(=O)(=O)NC1CCCC1
6,200 nM,COc1ccc(-c2c(C)noc2C)cc1S(=O)(=O)NC1CCCC1

# Biological target: T2, Bromodomain-containing protein 4 (Homo sapiens, UniProt O60885)
# Assay: Inhibition of BRD4 (D1) (unknown origin) at 5 uM incubated for 30 mins using histone H4 peptide (1-21) K5/8/12/16Ac-biotin by alpha screen assay
# Conditions: not given
row,Structure (SMILES),inhibition
1,COc1ccc(-c2ccc(N)[n+]([O-])c2C)cc1S(=O)(=O)NC1CCCC1,Active
2,COc1ccc(-c2ccc(NC(C)=O)cc2)cc1S(=O)(=O)NC1CCCC1,inactive
3,COc1ccc(-c2cccc(N)c2C)cc1S(=O)(=O)NC1CCCC1,inactive
4,COc1ccc(-c2cc(N)ccc2C)cc1S(=O)(=O)NC1CCCC1,inactive
5,COc1ccc(-c2cc[n+]([O-])cc2)cc1S(=O)(=O)NC1CCCC1,inactive
6,COc1ccc(-c2ccc(N)nc2C)cc1S(=O)(=O)NC1CCCC1,Active
7,COc1ccc(-c2cnc(N)nc2)cc1S(=O)(=O)NC1CCCC1,inactive
8,COc1ccc(-c2ccnn2C)cc1S(=O)(=O)NC1CCCC1,Active

# The next lines start with the values.
row,inhibition,Structure (SMILES)
1,inactive,Cc1ccc(-n2cnnc2C)cc1S(=O)(=O)NC1CCCC1
2,Active,COc1ccc(-c2cnn(C)n2)cc1S(=O)(=O)NC1CCCC1
3,inactive,Cc1nc(-c2ccc(C)c(S(=O)(=O)NC3CCCC3)c2)no1
4,Active,COc1ccc(-c2c(C)n[nH]c2C)cc1S(=O)(=O)NC1CCCC1
5,Active,Cc1ccc(-c2c(C)noc2C)cc1S(=O)(=O)NC1CCCC1
6,inactive,Cc1ccc(-n2c(C)nnc2C)cc1S(=O)(=O)NC1CCCC1
7,Active,COc1ccc(-c2c(C)noc2C)cc1S(=O)(=O)NC1CCCC1

# System: not listed separately
# Assay: Degradation half-life in human liver microsomes
# Type: ADME
# Conditions: not given
row,half-life,Structure (SMILES)
1,7 min,Cc1ccc(-c2c(C)noc2C)cc1S(=O)(=O)NC1CCCC1
2,234 min,COc1cc2c(cc1-c1c(C)noc1C)ncc1[nH]c(=O)n([C@H](C)c3ccccn3)c12
3,173 min,Cc1ccc(-n2c(C)nnc2C)cc1S(=O)(=O)NC1CCCC1

# Biological target: T1, Bromodomain-containing protein 3
# Assay: Inhibition of BRD3 (D1) (unknown origin) at 5 uM incubated for 30 mins using histone H4 peptide (1-21) K5/8/12/16Ac-biotin by alpha screen assay
# Conditions: not given
# Target sequence in this assay (Q15059 2-726 limits assumed): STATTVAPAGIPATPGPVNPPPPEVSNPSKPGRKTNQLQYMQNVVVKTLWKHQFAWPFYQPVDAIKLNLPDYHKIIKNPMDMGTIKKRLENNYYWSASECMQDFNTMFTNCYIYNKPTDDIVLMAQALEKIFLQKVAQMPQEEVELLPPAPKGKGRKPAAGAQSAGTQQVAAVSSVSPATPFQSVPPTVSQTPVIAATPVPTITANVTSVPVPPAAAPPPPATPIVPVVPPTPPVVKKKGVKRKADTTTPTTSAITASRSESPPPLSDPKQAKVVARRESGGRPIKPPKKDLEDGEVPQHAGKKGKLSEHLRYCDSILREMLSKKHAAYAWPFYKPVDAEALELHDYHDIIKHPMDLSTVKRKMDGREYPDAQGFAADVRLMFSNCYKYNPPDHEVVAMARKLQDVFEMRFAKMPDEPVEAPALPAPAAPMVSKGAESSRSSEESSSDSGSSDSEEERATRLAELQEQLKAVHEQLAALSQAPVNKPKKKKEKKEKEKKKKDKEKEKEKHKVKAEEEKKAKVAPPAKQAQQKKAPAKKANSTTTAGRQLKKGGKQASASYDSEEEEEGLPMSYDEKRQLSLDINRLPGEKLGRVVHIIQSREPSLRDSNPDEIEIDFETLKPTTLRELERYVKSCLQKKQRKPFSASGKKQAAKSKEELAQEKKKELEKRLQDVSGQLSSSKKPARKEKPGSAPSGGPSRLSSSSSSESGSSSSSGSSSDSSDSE
row,Structure (SMILES),inhibition
1,COc1ccc(-c2ccc(N)[n+]([O-])c2C)cc1S(=O)(=O)NC1CCCC1,Active
2,COc1ccc(-c2ccc(NC(C)=O)cc2)cc1S(=O)(=O)NC1CCCC1,inactive
3,COc1ccc(-c2cccc(N)c2C)cc1S(=O)(=O)NC1CCCC1,inactive
4,COc1ccc(-c2cc(N)ccc2C)cc1S(=O)(=O)NC1CCCC1,inactive
5,COc1ccc(-c2cc[n+]([O-])cc2)cc1S(=O)(=O)NC1CCCC1,inactive
6,COc1ccc(-c2ccc(N)nc2C)cc1S(=O)(=O)NC1CCCC1,Active
7,COc1ccc(-c2cnc(N)nc2)cc1S(=O)(=O)NC1CCCC1,inactive
8,COc1ccc(-c2ccnn2C)cc1S(=O)(=O)NC1CCCC1,Active

# The next lines start with the values.
row,inhibition,Structure (SMILES)
1,inactive,Cc1ccc(-n2cnnc2C)cc1S(=O)(=O)NC1CCCC1
2,inactive,Cc1nc(-c2ccc(C)c(S(=O)(=O)NC3CCCC3)c2)no1
3,Active,COc1ccc(-c2c(C)n[nH]c2C)cc1S(=O)(=O)NC1CCCC1
4,Active,Cc1ccc(-c2c(C)noc2C)cc1S(=O)(=O)NC1CCCC1
5,inactive,Cc1ccc(-n2c(C)nnc2C)cc1S(=O)(=O)NC1CCCC1
6,Active,COc1ccc(-c2c(C)noc2C)cc1S(=O)(=O)NC1CCCC1

# Biological target: T2, Bromodomain-containing protein 4
# Assay: Inhibition of BRD4 (D1) (unknown origin) incubated for 30 mins using histone H4 peptide (1-21) K5/8/12/16Ac-biotin by alpha screen assay
# Conditions: not given
row,IC50,Structure (SMILES)
1,≥ 10 µM,Cc1ccc(-n2cnnc2C)cc1S(=O)(=O)NC1CCCC1
2,4 µM,COc1ccc(-c2cnn(C)n2)cc1S(=O)(=O)NC1CCCC1
3,10.1 µM,COc1ccc(-c2ccnn2C)cc1S(=O)(=O)NC1CCCC1
4,2.89 µM,COc1ccc(-c2c(C)n[nH]c2C)cc1S(=O)(=O)NC1CCCC1
5,≥ 10 µM,Cc1ccc(-n2c(C)nnc2C)cc1S(=O)(=O)NC1CCCC1
6,1.2 µM,COc1ccc(-c2c(C)noc2C)cc1S(=O)(=O)NC1CCCC1

# System: not listed separately
# Assay: Intrinsic clearance in human liver microsomes
# Type: ADME
# Conditions: read-out: CLH
row,microsomal CLint,Structure (SMILES)
1,246 µL/min/mg,Cc1ccc(-c2c(C)noc2C)cc1S(=O)(=O)NC1CCCC1
2,7 µL/min/mg,COc1cc2c(cc1-c1c(C)noc1C)ncc1[nH]c(=O)n([C@H](C)c3ccccn3)c12
3,10 µL/min/mg,Cc1ccc(-n2c(C)nnc2C)cc1S(=O)(=O)NC1CCCC1

# Biological target: Bromodomain-containing protein 2 (Homo sapiens) (UniProt P25440)
# Assay: Inhibition of BRD2 (D1) (unknown origin) at 5 uM incubated for 30 mins using histone H4 peptide (1-21) K5/8/12/16Ac-biotin by alpha screen assay
# Conditions: not given
# Bromodomain-containing protein 2 (Homo sapiens), sequence (P25440 whole entry, looked up): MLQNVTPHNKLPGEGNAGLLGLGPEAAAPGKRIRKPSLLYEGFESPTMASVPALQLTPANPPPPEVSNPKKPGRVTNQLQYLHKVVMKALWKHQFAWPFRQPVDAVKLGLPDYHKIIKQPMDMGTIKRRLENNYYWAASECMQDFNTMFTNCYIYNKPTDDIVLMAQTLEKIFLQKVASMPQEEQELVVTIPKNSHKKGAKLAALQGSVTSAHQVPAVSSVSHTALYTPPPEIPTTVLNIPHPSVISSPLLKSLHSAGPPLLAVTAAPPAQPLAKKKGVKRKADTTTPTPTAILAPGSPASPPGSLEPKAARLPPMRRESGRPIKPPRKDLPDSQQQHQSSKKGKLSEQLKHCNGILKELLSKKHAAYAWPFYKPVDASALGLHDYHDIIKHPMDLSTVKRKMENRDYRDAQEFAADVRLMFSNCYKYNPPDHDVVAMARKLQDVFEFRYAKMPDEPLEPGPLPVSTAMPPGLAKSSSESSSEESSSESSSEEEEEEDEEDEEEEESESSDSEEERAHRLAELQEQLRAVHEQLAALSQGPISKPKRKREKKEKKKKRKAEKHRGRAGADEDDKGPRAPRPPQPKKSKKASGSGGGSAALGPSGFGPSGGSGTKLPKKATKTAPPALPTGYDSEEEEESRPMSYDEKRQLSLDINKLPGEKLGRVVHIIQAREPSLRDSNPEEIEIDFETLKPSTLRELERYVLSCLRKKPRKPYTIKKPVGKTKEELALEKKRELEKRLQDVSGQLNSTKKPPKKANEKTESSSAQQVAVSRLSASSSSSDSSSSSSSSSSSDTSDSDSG
row,Structure (SMILES),inhibition
1,COc1ccc(-c2ccc(NC(C)=O)cc2)cc1S(=O)(=O)NC1CCCC1,inactive
2,COc1ccc(-c2cccc(N)c2C)cc1S(=O)(=O)NC1CCCC1,inactive
3,COc1ccc(-c2cc(N)ccc2C)cc1S(=O)(=O)NC1CCCC1,inactive
4,COc1ccc(-c2cc[n+]([O-])cc2)cc1S(=O)(=O)NC1CCCC1,inactive
5,COc1ccc(-c2ccc(N)nc2C)cc1S(=O)(=O)NC1CCCC1,Active
6,COc1ccc(-c2cnc(N)nc2)cc1S(=O)(=O)NC1CCCC1,inactive
7,COc1ccc(-c2ccnn2C)cc1S(=O)(=O)NC1CCCC1,Active

# Second part, the molecule after the results:
row,inhibition,Structure (SMILES)
1,inactive,Cc1ccc(-n2cnnc2C)cc1S(=O)(=O)NC1CCCC1
2,inactive,Cc1nc(-c2ccc(C)c(S(=O)(=O)NC3CCCC3)c2)no1
3,Active,COc1ccc(-c2c(C)n[nH]c2C)cc1S(=O)(=O)NC1CCCC1
4,Active,Cc1ccc(-c2c(C)noc2C)cc1S(=O)(=O)NC1CCCC1
5,inactive,Cc1ccc(-n2c(C)nnc2C)cc1S(=O)(=O)NC1CCCC1
6,Active,COc1ccc(-c2c(C)noc2C)cc1S(=O)(=O)NC1CCCC1

# System: not listed separately
# Assay: Intrinsic clearance in mouse liver microsomes
# Type: ADME
# Conditions: read-out: CLH
row,microsomal CLint,Structure (SMILES)
1,461 µL/min/mg,Cc1ccc(-c2c(C)noc2C)cc1S(=O)(=O)NC1CCCC1
2,< 7 µL/min/mg,COc1cc2c(cc1-c1c(C)noc1C)ncc1[nH]c(=O)n([C@H](C)c3ccccn3)c12
3,20 µL/min/mg,Cc1ccc(-n2c(C)nnc2C)cc1S(=O)(=O)NC1CCCC1

# System: not listed separately
# Assay: Degradation half-life in mouse liver microsomes
# Type: ADME
# Conditions: not given
row,half-life,Structure (SMILES)
1,4 min,Cc1ccc(-c2c(C)noc2C)cc1S(=O)(=O)NC1CCCC1
2,> 247 min,COc1cc2c(cc1-c1c(C)noc1C)ncc1[nH]c(=O)n([C@H](C)c3ccccn3)c12
3,85 min,Cc1ccc(-n2c(C)nnc2C)cc1S(=O)(=O)NC1CCCC1

# System: not listed separately
# Assay: Intrinsic clearance in rat liver microsomes
# Type: ADME
# Conditions: read-out: CLH
row,microsomal CLint,Structure (SMILES)
1,711 µL/min/mg,Cc1ccc(-c2c(C)noc2C)cc1S(=O)(=O)NC1CCCC1
2,8 µL/min/mg,COc1cc2c(cc1-c1c(C)noc1C)ncc1[nH]c(=O)n([C@H](C)c3ccccn3)c12
3,16 µL/min/mg,Cc1ccc(-n2c(C)nnc2C)cc1S(=O)(=O)NC1CCCC1
